# The source made the active and inactive calls. The calls are words filed in the database; no cut-off is given here.
# Tests used:
# Rattus norvegicus [1] = assay: Antiinsomnic activity in CD1 rat assessed as hypnotic effect at 3 to 10 mg/kg, po administered at circadian time 18 hrs measured after 2 to 3 hrs; assay type: functional, organism-based
# [2] = target: T1, Orexin/Hypocretin receptor type 1 (Homo sapiens) (UniProt O43613)
# T1 sequence (whole entry): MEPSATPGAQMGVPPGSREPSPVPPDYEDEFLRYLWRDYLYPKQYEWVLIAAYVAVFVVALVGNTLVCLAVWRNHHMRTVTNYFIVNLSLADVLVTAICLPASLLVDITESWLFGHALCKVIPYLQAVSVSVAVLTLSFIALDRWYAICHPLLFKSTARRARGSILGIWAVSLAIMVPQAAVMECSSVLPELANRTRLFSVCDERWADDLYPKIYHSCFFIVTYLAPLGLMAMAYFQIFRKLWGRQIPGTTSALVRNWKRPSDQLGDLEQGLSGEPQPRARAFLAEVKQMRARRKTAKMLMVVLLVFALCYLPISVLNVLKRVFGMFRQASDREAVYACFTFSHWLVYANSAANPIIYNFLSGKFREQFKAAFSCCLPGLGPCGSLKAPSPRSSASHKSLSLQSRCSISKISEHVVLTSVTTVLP
# [3] = Efflux ratio of the compound in human Caco2 cells; assay type: ADME, cell-based; conditions: Caco-2
# [4] = target: T1, Orexin/Hypocretin receptor type 1 (Homo sapiens); conditions: CHO
# Description: Antagonist activity at human orexin receptor-1 expressed in CHO cells assessed as orexin-A-induced ERK1/2 phosphorylation after 2 hrs by fluorescence assay
# [5] = Clearance in Sprague-Dawley rat at 1 mg/kg, iv; assay type: ADME, organism-based; conditions: in vivo
# Cytochrome P450 2C19 = Cytochrome P450 2C19 (Homo sapiens, UniProt P33261); assay: Inhibition of CYP2C19 (unknown origin); assay type: ADME
# Sequence of Cytochrome P450 2C19 (P33261 whole entry): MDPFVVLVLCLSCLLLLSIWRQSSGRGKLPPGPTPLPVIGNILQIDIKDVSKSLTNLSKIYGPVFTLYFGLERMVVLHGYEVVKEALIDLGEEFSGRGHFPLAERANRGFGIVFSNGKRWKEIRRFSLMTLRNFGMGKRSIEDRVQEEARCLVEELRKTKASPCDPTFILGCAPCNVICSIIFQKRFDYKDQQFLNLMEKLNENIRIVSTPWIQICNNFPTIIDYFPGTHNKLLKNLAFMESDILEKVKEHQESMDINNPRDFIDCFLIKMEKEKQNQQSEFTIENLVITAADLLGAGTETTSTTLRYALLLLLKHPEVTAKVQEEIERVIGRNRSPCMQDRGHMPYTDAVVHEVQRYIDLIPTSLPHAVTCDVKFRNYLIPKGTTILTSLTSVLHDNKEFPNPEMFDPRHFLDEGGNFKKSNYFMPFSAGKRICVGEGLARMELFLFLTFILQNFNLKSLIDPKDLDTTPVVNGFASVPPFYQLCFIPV
# [6] = Ratio of drug level in brain to plasma in Sprague-Dawley rat at 1 mg/kg, iv after 0.5 hrs; assay type: ADME, organism-based; conditions: read-out: BPR
# [7] = Plasma concentration in Sprague-Dawley rat plasma at 1 mg/kg, po after 1 hr; assay type: ADME, organism-based
# Rattus norvegicus [8] = assay: Antiinsomnic activity in CD1 rat assessed as reduction of time taken for latency to first REM episode at 10 mg/kg, po administered at 18 hrs after circadian time; assay type: functional; parameters: scale not given: the % may be the effect or the level left
# [9] = Plasma protein binding in human; assay type: ADME, cell-free; conditions: read-out: PPB (converted)
# Rattus norvegicus [10] = assay: AUC (infinity) in Sprague-Dawley rat at 2 mg/kg, po; assay type: ADME, organism-based; parameters: dose 2 mg/kg, route oral, time infinity; conditions: in vivo
# Orexin receptor type 2 = target: T2, Orexin receptor type 2 (Homo sapiens, UniProt O43614); assay: Displacement of [3H]EMPA from human orexin receptor-2 expressed in HEK293 cells after 90 mins by scintillation counting; assay type: cell-based
# T2 sequence (O43614 whole entry): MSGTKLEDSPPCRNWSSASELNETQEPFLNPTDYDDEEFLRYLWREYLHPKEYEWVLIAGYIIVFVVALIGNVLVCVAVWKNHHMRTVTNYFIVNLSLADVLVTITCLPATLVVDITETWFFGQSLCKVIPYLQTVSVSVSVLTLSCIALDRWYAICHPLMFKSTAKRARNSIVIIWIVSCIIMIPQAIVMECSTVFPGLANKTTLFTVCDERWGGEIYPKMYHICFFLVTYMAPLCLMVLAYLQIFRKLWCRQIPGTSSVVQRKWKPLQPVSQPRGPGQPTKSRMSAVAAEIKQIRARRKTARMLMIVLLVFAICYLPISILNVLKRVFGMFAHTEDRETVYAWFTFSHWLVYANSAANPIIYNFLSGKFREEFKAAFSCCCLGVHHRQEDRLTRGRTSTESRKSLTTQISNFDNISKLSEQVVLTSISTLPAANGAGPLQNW
# [11] = Tmax in Sprague-Dawley rat at 2 mg/kg, po; assay type: ADME, organism-based; conditions: in vivo
# Rattus norvegicus [12] = assay: Antiinsomnic activity in CD1 rat assessed as increase of NREM sleep at 3 mg/kg, po administered at circadian time 18 hrs measured after 3 hrs; assay type: functional
# [13] = Half life in human hepatocytes; assay type: ADME, cell-based, Hepatocyte
# Cytochrome P450 2D6 = Cytochrome P450 2D6 (Homo sapiens, UniProt P10635); assay: Inhibition of CYP2D6 (unknown origin); assay type: ADME
# Sequence of Cytochrome P450 2D6 (P10635 whole entry): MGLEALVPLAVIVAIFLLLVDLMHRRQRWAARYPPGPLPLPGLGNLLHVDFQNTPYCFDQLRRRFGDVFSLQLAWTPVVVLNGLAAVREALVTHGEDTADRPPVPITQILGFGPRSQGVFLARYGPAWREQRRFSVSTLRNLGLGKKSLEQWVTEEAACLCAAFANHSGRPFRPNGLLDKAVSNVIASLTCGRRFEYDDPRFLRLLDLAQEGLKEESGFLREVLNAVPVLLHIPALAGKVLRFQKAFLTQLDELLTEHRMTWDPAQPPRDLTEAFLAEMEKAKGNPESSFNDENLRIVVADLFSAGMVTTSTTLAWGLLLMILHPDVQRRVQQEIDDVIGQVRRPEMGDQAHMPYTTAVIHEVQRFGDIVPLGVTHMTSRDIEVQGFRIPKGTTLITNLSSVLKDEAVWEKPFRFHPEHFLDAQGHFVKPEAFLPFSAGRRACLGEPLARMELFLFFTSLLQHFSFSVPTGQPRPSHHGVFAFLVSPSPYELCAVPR
# [14] = Tmax in beagle dog at 1 mg/kg, po; assay type: ADME, organism-based, Canis lupus familiaris; conditions: in vivo
# Cytochrome P450 3A4 = Cytochrome P450 3A4 (Homo sapiens, UniProt P08684); assay: Inhibition of CYP3A4 (unknown origin); assay type: ADME
# Sequence of Cytochrome P450 3A4 (P08684 whole entry): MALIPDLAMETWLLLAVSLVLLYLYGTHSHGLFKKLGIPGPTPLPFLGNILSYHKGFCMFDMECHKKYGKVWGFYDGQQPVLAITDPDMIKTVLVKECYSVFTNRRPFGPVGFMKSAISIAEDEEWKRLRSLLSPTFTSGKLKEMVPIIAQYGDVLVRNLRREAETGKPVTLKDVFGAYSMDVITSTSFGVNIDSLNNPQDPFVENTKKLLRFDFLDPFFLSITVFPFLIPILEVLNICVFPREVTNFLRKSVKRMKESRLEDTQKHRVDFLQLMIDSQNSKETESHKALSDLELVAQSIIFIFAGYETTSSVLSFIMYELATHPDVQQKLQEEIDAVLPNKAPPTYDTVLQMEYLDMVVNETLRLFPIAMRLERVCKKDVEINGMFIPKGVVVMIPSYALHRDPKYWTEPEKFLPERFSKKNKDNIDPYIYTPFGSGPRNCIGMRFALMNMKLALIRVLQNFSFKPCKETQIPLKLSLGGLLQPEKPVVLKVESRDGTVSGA
# Salmonella typhimurium [15] = assay: Genotoxicity in Salmonella typhimurium by Ames test in absence of S9 fraction; assay type: toxicity, organism-based; conditions: salmonella enterica subsp. enterica serovar typhimurium
# [16] = Mean residence time in Sprague-Dawley rat; assay type: ADME, organism-based; conditions: in vivo
# [17] = target: T3, Orexin receptor type 2 (Homo sapiens) (UniProt O43614); conditions: CHO
# T3 sequence (whole entry): T2 sequence (O43614 whole entry)
# Description: Antagonist activity at human orexin receptor-2 expressed in CHO cells assessed as orexin-A-induced ERK1/2 phosphorylation after 2 hrs by fluorescence assay
# [18] = Volume of distribution at steady state in Sprague-Dawley rat at 1 mg/kg, iv; assay type: ADME, organism-based; conditions: in vivo, read-out: Vdss
# Rattus norvegicus [19] = assay: Antiinsomnic activity in CD1 rat assessed as increase of REM sleep at 10 mg/kg, po administered at circadian time 18 hrs measured after 3 hrs; assay type: functional
# Cytochrome P450 2C9 = Cytochrome P450 2C9 (Homo sapiens, UniProt P11712); assay: Inhibition of CYP2C9 (unknown origin); assay type: ADME
# Sequence of Cytochrome P450 2C9 (P11712 whole entry): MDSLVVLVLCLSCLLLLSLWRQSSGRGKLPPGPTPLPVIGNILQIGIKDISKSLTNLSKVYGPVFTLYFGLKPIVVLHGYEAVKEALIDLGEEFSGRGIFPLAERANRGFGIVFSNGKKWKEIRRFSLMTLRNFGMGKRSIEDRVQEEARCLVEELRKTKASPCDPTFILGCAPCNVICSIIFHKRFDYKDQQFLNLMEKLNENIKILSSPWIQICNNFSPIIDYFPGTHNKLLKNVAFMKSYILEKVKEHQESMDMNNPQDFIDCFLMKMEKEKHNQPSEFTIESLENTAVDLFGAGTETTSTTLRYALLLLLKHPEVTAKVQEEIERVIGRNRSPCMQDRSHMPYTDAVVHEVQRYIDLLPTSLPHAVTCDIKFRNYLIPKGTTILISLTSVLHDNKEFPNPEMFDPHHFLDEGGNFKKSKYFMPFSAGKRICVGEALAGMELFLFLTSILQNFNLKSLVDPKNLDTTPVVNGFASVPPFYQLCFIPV
# [20] = Half life in dog hepatocytes; assay type: ADME, cell-based, Canis lupus familiaris, Hepatocyte
# [21] = Oral bioavailability in Sprague-Dawley rat at 2 mg/kg; assay type: ADME, organism-based; conditions: in vivo
# Salmonella typhimurium [22] = assay: Genotoxicity in Salmonella typhimurium by Ames test in presence of S9 fraction; assay type: toxicity, organism-based; conditions: salmonella enterica subsp. enterica serovar typhimurium
# [23] = Half life in rat liver microsomes; assay type: ADME
# [24] = Half life in Sprague-Dawley rat at 2 mg/kg, po; assay type: ADME, organism-based; conditions: in vivo
# Rattus norvegicus [25] = assay: Antiinsomnic activity in CD1 rat assessed as increase of REM sleep at 3 mg/kg, po administered at circadian time 18 hrs measured after 3 hrs; assay type: functional
# [26] = Oral bioavailability in beagle dog at 1 mg/kg; assay type: ADME, organism-based, Canis lupus familiaris; conditions: in vivo
# [27] = Ratio of drug level in cerebrospinal fluid to brain in Sprague-Dawley rat at 1 mg/kg, iv after 0.5 hrs; assay type: ADME, organism-based, CSF/Brain; conditions: in vivo
# [28] = Mean residence time in beagle dog; assay type: ADME, organism-based, Canis lupus familiaris; conditions: in vivo
# [29] = target: T3, Orexin receptor type 2 (Homo sapiens)
# Description: Binding affinity to orexin receptor-2 (unknown origin) assessed as dissociation half-life by Motulsky-Mahan radioligand binding assay
# [30] = Plasma protein binding in mouse; assay type: ADME, cell-free; conditions: read-out: PPB (converted)
# [31] = Volume of distribution at steady state in beagle dog at 1 mg/kg, iv; assay type: ADME, organism-based, Canis lupus familiaris; conditions: in vivo, read-out: Vdss
structure (smiles),measurement,setting,value
COc1cc(N2C(=O)N(Cc3c(F)cc(F)cc3F)c3ncccc3S2(=O)=O)cnc1OC,Activity,Rattus norvegicus [1],Active
same,T1/2,[2],0.8 min
same,efflux ratio,[3],0.7
same,pKb,[4],6.6
same,clearance,[5],18 mL/min/kg
same,IC50,Cytochrome P450 2C19,> 10 µM
same,Kp at 0.5 h,[6],0.49
same,concentration at 1 h,[7],72 ng/mL
same,Activity,Rattus norvegicus [8],35%
same,fraction unbound,[9],0.007
same,AUC,Rattus norvegicus [10],1220 ng·h/mL
same,Ki,Orexin receptor type 2,0.00251 µM
same,Tmax,[11],30 min
same,Activity,Rattus norvegicus [12],28.8%
same,half-life,[13],> 250 min
same,IC50,Cytochrome P450 2D6,> 10 µM
same,Tmax,[14],24 min
same,IC50,Cytochrome P450 3A4,> 10 µM
same,Activity,Salmonella typhimurium [15],Non-toxic
same,MRT,[16],114 min
same,pKb,[17],7.3
same,Vd,[18],2.1 L/kg
same,Activity,Rattus norvegicus [19],69.6%
same,IC50,Cytochrome P450 2C9,> 10 µM
same,half-life,[20],> 110 min
same,bioavailability,[21],66%
same,Activity,Salmonella typhimurium [22],Non-toxic
same,half-life,[23],23 min
same,half-life,[24],108 min
same,Activity,Rattus norvegicus [25],70.6%
same,bioavailability,[26],70%
same,Ratio,[27],0.01
same,MRT,[28],240 min
same,T1/2,[29],7.6 min
same,fraction unbound,[30],0.008
same,Vd,[31],3 L/kg

# Reference: ChEMBL document CHEMBL3739366, “Discovery of HTL6641, a dual orexin receptor antagonist with differentiated pharmacodynamic properties” (Medchemcomm, 2015)
